Reference: paper PMC9628989 (Antiviral Research, 2007)
Like-named read-outs stand apart in the source and are kept apart here.

Experiments:
[1] = in vivo; cited from earlier work
[2] = CD-1, mouse, s9, 0 h, pH 7.4
[3] = cynomolgus monkey, s9, 0 h, pH 7.4
[4] = human, s9, 0 h, pH 7.4
[5] = in vitro; settings: CD-1, mouse, s9, pH 7.4, Half-life
[6] = in vitro; settings: cynomolgus monkey, s9, pH 7.4, Half-life
[7] = in vitro; settings: both, CD-1, mouse, hepatocytes
[8] = in vitro; settings: both, human, hepatocytes
[9] = mouse, in vivo, po; cited from earlier work
[10] = in vivo; cited from earlier work; remark: listed apart in the source

| SMILES | oral bioavailability [1] | Percentage of CMX001 remaining at incubation time point 0 min [2] | Percentage of CMX001 remaining at incubation time point 0 min [3] | Percentage of CMX001 remaining at incubation time point 0 min [4] | half-life [5] | half-life [6] | half-life [7] | half-life [8] | orally administered drug accounted for in plasma [9] | nephrotoxicity [10] |
| --- | --- | --- | --- | --- | --- | --- | --- | --- | --- | --- |
| Nc1ccn(C[C@@H](CO)OCP(=O)(O)O)c(=O)n1 [CDV, [S]-1-[3-hydroxy-2-phosphonylmethoxypropyl]cytosine] | poor oral bioavailability |  |  |  |  |  |  |  |  |  |
| CCCCCCCCCCCCCCCCOCCCOP(=O)(O)CO[C@H](CO)Cn1ccc(N)nc1=O [CMX001, hexadecyloxypropyl ester of CDV] |  | 100% | 100% | 100% | > 1.67 h | 8 min | 3.55 h | 3.8 h | approximately 88% | not been shown to cause nephrotoxicity |
